Assay [1] relates to peptide-pulsed T2 cells. The assay is described as follows: In vitro CTL induction, IFN-gamma ELISPOT assay (HLA-A*0201). The conditions noted are these: CTLs induced with peptide from HLA-A*0201 positive donor, peptide-pulsed T2 vs control. Format: cell-based, human. The text has this:
Monocyte-derived dendritic cells (DCs) were used as antigen-presenting cells to induce cytotoxic T lymphocyte (CTL) responses against peptides presented on human leukocyte antigen (HLA). DCs were generated in vitro as described elsewhere (Nakahara S et al., Cancer Res 2003, 63(14): 4112-8). Specifically, peripheral blood mononuclear cells isolated from a normal volunteer (HLA-A*0201 positive) by Ficoll-Plaque (Pharmacia) solution were separated by adherence to a plastic tissue culture dish (Becton Dickinson) so as to enrich them as the monocyte fraction. The monocyte-enriched population was cultured in the presence of 1000 U/ml of granulocyte-macrophage colony-stimulating factor (R&D System) and 1000 U/ml of interleukin (IL)-4 (R&D System) in AIM-V Medium (Invitrogen) containing 2% heat-inactivated autologous serum (AS). After 7 days of culture, the cytokine-induced DCs were pulsed with 20 micro-g/ml of each of the synthesized peptides in the presence of 3 micro-g/ml of beta 2-microglobulin for 3 hr at 37 degrees C. in AIM-V Medium. The generated cells appeared to express DC-associated molecules, such as CD80, CD83, CD86 and HLA class II, on their cell surfaces (data not shown). These peptide-pulsed DCs were then inactivated by X-irradiation (20 Gy) and mixing at a 1:20 ratio with autologous CD8+ T cells, obtained by positive selection with CD8 Positive Isolation Kit (Dynal). These cultures were set up in 48-well plates (Corning); each well contained 1.5×10^4 peptide-pulsed DCs, 3×10^5 CD8+ T cells and 10 ng/ml of IL-7 (R&D System) in 0.5 ml of AIM-V/2% AS medium. Three days later, these cultures were supplemented with IL-2 (CHIRON) to a final concentration of 20 IU/ml. On day 7 and 14, the T cells were further stimulated with the autologous peptide-pulsed DCs. The DCs were prepared each time by the same way described above. CTL was tested against peptide-pulsed T2 cells after the 3rd round of peptide stimulation on day 21 (Tanaka H et al., Br J Cancer 2001, 84(1): 94-9; Umano Y et al., Br J Cancer 2001, 84(8): 1052-7; Uchida N et al., Clin Cancer Res 2004, 10(24): 8577-86; Suda T et al., Cancer Sci 2006, 97(5): 411-9; Watanabe T et al., Cancer Sci 2005, 96(8): 498-506).
(§1) Specifically, peptide-pulsed T2 (1×10^4/well) was prepared as stimulator cells. Cultured cells in 48 wells were used as responder cells. IFN-gamma ELISPOT assay and IFN-gamma ELISA assay were performed under manufacture procedure.
CTLs for those peptides derived from TTLL4 were generated according to the protocols as described in “Materials and Methods”.

For assay [2], the system named is peptide-pulsed T2 cells. The experiment in a line: IFN-gamma ELISA assay of CTL clones (HLA-A*0201). Format: cell-based, human. As to conditions: CTL clones by limiting dilution, target cells pulsed with peptide vs control. The protocol:
The dilutions were made to have 0.3, 1, and 3 CTLs/well in 96 round-bottomed micro titer plate (Nalge Nunc International). CTLs were cultured with 1×10^4 cells/well of 2 kinds of human B-lymphoblastoid cell lines, 30 ng/ml of anti-CD3 antibody, and 125 U/ml of IL-2 in a total of 150 micro-l/well of AIM-V Medium containing 5% AS. 50 micro-l/well of IL-2 were added to the medium 10 days later so to reach a final concentration of 125 U/ml IL-2. CTL activity was tested on the 14th day, and CTL clones were expanded using the same method as described above (Uchida N et al., Clin Cancer Res 2004, 10(24): 8577-86; Suda T et al., Cancer Sci 2006, 97(5): 411-9; Watanabe T et al., Cancer Sci 2005, 96(8): 498-506).
as §1
(§2) CTL activity of these CTL lines was determined by IFN-gamma ELISA assay (FIG. 6a-d). […] Furthermore, the CTL clones were established by limiting dilution from the CTL lines as described in “Materials and Methods”, and IFN-gamma production from the CTL clones against target cells pulsed peptide was determined by IFN-gamma ELISA assay.

In assay [3] the test system is peptide-pulsed T2 cells. The experiment in a line: IFN-gamma ELISA assay of CTL lines (HLA-A*0201). Format: cell-based, human. The conditions noted are these: CTL lines stimulated with peptide, target cells pulsed with peptide vs without peptide pulse. The protocol: CTLs were expanded in culture using the method similar to the one described by Riddell et al. (Walter E A et al., N Engl J Med 1995, 333(16): 1038-44; Riddell S R et al., Nat Med 1996, 2(2): 216-23). A total of 5×10^4 CTLs were suspended in 25 ml of AIM-V/5% AS medium with 2 kinds of human B-lymphoblastoid cell lines, inactivated by Mitomycin C, in the presence of 40 ng/ml of anti-CD3 monoclonal antibody (Pharmingen). One day after initiating the cultures, 120 IU/ml of IL-2 were added to the cultures. The cultures were fed with fresh AIM-V/5% AS medium containing 30 IU/ml of IL-2 on days 5, 8 and 11 (Tanaka H et al., Br J Cancer 2001, 84(1): 94-9; Umano Y et al., Br J Cancer 2001, 84(8): 1052-7; Uchida N et al., Clin Cancer Res 2004, 10(24): 8577-86; Suda T et al., Cancer Sci 2006, 97(5): 411-9; Watanabe T et al., Cancer Sci 2005, 96(8): 498-506).
as §1, §2

Assay [4] concerns COS7 cells transfected with TTLL4 and HLA-A*0201. The assay is described as follows: Specific CTL activity against target cells expressing TTLL4 and HLA-A*0201. In kind it is cell-based, African green monkey. The conditions noted are these: for Specific CTL activity against COS7 cells transfected with both TTLL4 and HLA-A*0201: CTL clone (9-805) or CTL line (9-66) established with peptide; for Specific CTL activity against control COS7 cells expressing either HLA-A*0201 or TTLL4: controls: COS7 transfected with only full length TTLL4 or only HLA-A*0201. The text has this: The cDNA encoding an open reading frame of target genes or HLA-A*0201 was amplified by PCR. The PCR-amplified product was cloned into a vector. The plasmids were transfected into COST, which is the target genes and HLA-A*0201-null cell line, using lipofectamine 2000 (Invitrogen) according to the manufacturer's recommended procedures. After 2 days from transfection, the transfected cells were harvested with versene (Invitrogen) and used as the target cells (5×10^4 cells/well) for CTL activity assay.
The established CTL lines and clones raised against each peptide were examined for the ability to recognize target cells that express TTLL4 and HLA-A*0201 molecule. […] COS7 cells transfected with either full length of TTLL4 or HLA-A*0201 were prepared as the controls.

Entries after “also recorded” stand apart in the source; their conditions may differ.

Take ALIYSLFPNV [SEQ ID NO: 59]: in the assay on peptide-pulsed T2 cells [1] (listed as TTLL4-A02-10-574), the “Peptide specific CTL activity (IFN-gamma production, ELISPOT)” value (“Peptide specific CTL activity” below) is “potent IFN-gamma production; also recorded: significant and specific CTL activity”. In addition, the “IFN-gamma production of CTL clones (ELISA)” value in the assay with peptide-pulsed T2 cells [2] (listed as TTLL4-A02-10-574) is “Potent IFN-gamma productions”. Besides, the “IFN-gamma production of CTL lines (ELISA)” value in the assay with peptide-pulsed T2 cells [3] is recorded as “potent IFN-gamma production”.
Take FMHLTNYSV [SEQ ID NO: 39]: in assay [4] (listed as TTLL4-A02-9-805), the “Specific CTL activity against COS7 cells transfected with both TTLL4 and HLA-A*0201” value is given as “specific CTL activity; also recorded: potent CTL activity”. For the same sequence, the “Specific CTL activity against control COS7 cells expressing either HLA-A*0201 or TTLL4” value in assay [4] is recorded as “no significant specific CTL activity was detected”. Further, the “Peptide specific CTL activity” value with peptide-pulsed T2 cells [1] (listed as TTLL4-A02-9-805) is “potent IFN-gamma production; also recorded: significant and specific CTL activity”. For the same sequence, the “IFN-gamma production of CTL clones (ELISA)” value with peptide-pulsed T2 cells [2] (listed as TTLL4-A02-9-805) is on record as “Potent IFN-gamma productions”. Further, the “IFN-gamma production of CTL lines (ELISA)” value in the assay on peptide-pulsed T2 cells [3] is given as “potent IFN-gamma production”.
Take FMWPNSTPV [SEQ ID NO: 38]: the “Peptide specific CTL activity” value in the assay on peptide-pulsed T2 cells [1] (listed as TTLL4-A02-9-222) is “potent IFN-gamma production; also recorded: significant and specific CTL activity”. In addition, in the assay on peptide-pulsed T2 cells [2] (listed as TTLL4-A02-9-222), the “IFN-gamma production of CTL clones (ELISA)” value is “Potent IFN-gamma productions”. Also, the “IFN-gamma production of CTL lines (ELISA)” value in the assay on peptide-pulsed T2 cells [3] is reported as “potent IFN-gamma production”.
Regarding GLGPGLLGV [SEQ ID NO: 44], the “Specific CTL activity against COS7 cells transfected with both TTLL4 and HLA-A*0201” value in assay [4] (listed as TTLL4-A02-9-66) was “specific CTL activity; also recorded: potent CTL activity”. In assay [4], the “Specific CTL activity against control COS7 cells expressing either HLA-A*0201 or TTLL4” value is reported as “no significant specific CTL activity was detected”. The “Peptide specific CTL activity” value in the assay on peptide-pulsed T2 cells [1] (listed as TTLL4-A02-9-66) is “potent IFN-gamma production; also recorded: significant and specific CTL activity”. For the same sequence, the “IFN-gamma production of CTL lines (ELISA)” value with peptide-pulsed T2 cells [3] is reported as “potent IFN-gamma production”.

Values taken from patent US20130224234A1, “TTLL4 PEPTIDES AND VACCINES CONTAINING THE SAME” (Onco Therapy Science, Inc., priority 2010, published 2013).
